# Source: PubChem BioAssay AID2060898 (Molecular Pharmacology Branch, DTP, NCI, 2025)
# Tested on: 616215-338-R-J1-PDC complex spheroid viability
# Experiment: Anticancer human tumor 616215-338-R-J1-PDC patient-derived colon adenocarcinoma cell line growth inhibition [RAS]
# Conditions: for IC50: curve of first compound; for viability, T/C: stronger effect = lower value
# How it was run: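 Tumour cells grown as complex spheroids with HUVEC endothelial cells and mesenchymal stem cells, treated with RAS pathway inhibitor combinations. Each agent spans half-log steps from near clinical Cmax, or 10 microM where Cmax is unknown.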
# [1] = second compound 0.000949 µM, first compound 0.0316 µM
# [2] = second compound 0.000949 µM, first compound 0.1 µM
# [3] = second compound 0.000949 µM, first compound 0.316 µM
# [4] = second compound 0.000949 µM, first compound 1 µM
# [5] = second compound 0.000949 µM, first compound 3.16 µM
# [6] = second compound 0.000949 µM, first compound 10 µM
# [7] = second compound 0.003 µM, first compound 0.0316 µM
# [8] = second compound 0.003 µM, first compound 0.1 µM
# [9] = second compound 0.003 µM, first compound 0.316 µM
# [10] = second compound 0.003 µM, first compound 1 µM
# [11] = second compound 0.003 µM, first compound 3.16 µM
# [12] = second compound 0.003 µM, first compound 10 µM
# [13] = second compound 0.00949 µM, first compound 0.0316 µM
# [14] = second compound 0.00949 µM, first compound 0.1 µM
# [15] = second compound 0.00949 µM, first compound 0.316 µM
# [16] = second compound 0.00949 µM, first compound 1 µM
# [17] = second compound 0.00949 µM, first compound 3.16 µM
# [18] = second compound 0.00949 µM, first compound 10 µM
# [19] = second compound 0.03 µM, first compound 0.0316 µM
# [20] = second compound 0.03 µM, first compound 0.1 µM
# [21] = second compound 0.03 µM, first compound 0.316 µM
# [22] = second compound 0.03 µM, first compound 1 µM
# [23] = second compound 0.03 µM, first compound 3.16 µM
# [24] = second compound 0.03 µM, first compound 10 µM
# [25] = second compound 0.0949 µM, first compound 0.0316 µM
# [26] = second compound 0.0949 µM, first compound 0.1 µM
# [27] = second compound 0.0949 µM, first compound 0.316 µM
# [28] = second compound 0.0949 µM, first compound 1 µM
# [29] = second compound 0.0949 µM, first compound 3.16 µM
# [30] = second compound 0.0949 µM, first compound 10 µM
# [31] = second compound 0.3 µM, first compound 0.0316 µM
# [32] = second compound 0.3 µM, first compound 0.1 µM
# [33] = second compound 0.3 µM, first compound 0.316 µM
# [34] = second compound 0.3 µM, first compound 1 µM
# [35] = second compound 0.3 µM, first compound 3.16 µM
# [36] = second compound 0.3 µM, first compound 10 µM
# 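Note: spheroids exposed to agents for seven days before viability readout.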
# 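Throughout, for viability, T/C: 100% = DMSO vehicle control viability.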
compound,measurement,setting,value
CC1(O)CCCC1n1c(=O)c(C(F)F)cc2cnc(NC3CCN(S(C)(=O)=O)CC3)nc21 (centres undefined) + CCn1c(-c2cc(N3CCN(C)CC3)cnc2C(C)OC)c2c3cc(ccc31)-c1csc(n1)CC(NC(=O)C1CC1C)C(=O)N1CCCC(N1)C(=O)OCC(C)(C)C2,IC50,second compound 0.000949 µM,1130 nM
same,IC50,second compound 0.003 µM,199 nM
same,IC50,second compound 0.00949 µM,37.4 nM
same,IC50,second compound 0.03 µM,< 31.6 nM
same,IC50,second compound 0.0949 µM,< 31.6 nM
same,IC50,second compound 0.3 µM,< 31.6 nM
same,"viability, T/C",[1],122%
same,"viability, T/C",[2],111%
same,"viability, T/C",[3],54.4%
same,"viability, T/C",[4],47.8%
same,"viability, T/C",[5],46.6%
same,"viability, T/C",[6],2%
same,"viability, T/C",[7],113%
same,"viability, T/C",[8],65.1%
same,"viability, T/C",[9],30.5%
same,"viability, T/C",[10],36.8%
same,"viability, T/C",[11],38.9%
same,"viability, T/C",[12],4.05%
same,"viability, T/C",[13],49.9%
same,"viability, T/C",[14],51.1%
same,"viability, T/C",[15],29.7%
same,"viability, T/C",[16],23.9%
same,"viability, T/C",[17],31.9%
same,"viability, T/C",[18],2.73%
same,"viability, T/C",[19],47.4%
same,"viability, T/C",[20],28%
same,"viability, T/C",[21],22.7%
same,"viability, T/C",[22],22.2%
same,"viability, T/C",[23],36.3%
same,"viability, T/C",[24],2.37%
same,"viability, T/C",[25],35%
same,"viability, T/C",[26],27.4%
same,"viability, T/C",[27],21.3%
same,"viability, T/C",[28],22.1%
same,"viability, T/C",[29],28.7%
same,"viability, T/C",[30],2.08%
same,"viability, T/C",[31],31%
same,"viability, T/C",[32],32%
same,"viability, T/C",[33],16.4%
same,"viability, T/C",[34],30.3%
same,"viability, T/C",[35],29.7%
same,"viability, T/C",[36],4.15%
CCC(CC)c1cc(NC2CCC(N)C2)n2nccc2n1 (centres undefined) + CCn1c(-c2cc(N3CCN(C)CC3)cnc2C(C)OC)c2c3cc(ccc31)-c1csc(n1)CC(NC(=O)C1CC1C)C(=O)N1CCCC(N1)C(=O)OCC(C)(C)C2,IC50,second compound 0.000949 µM,1830 nM
same,IC50,second compound 0.003 µM,1880 nM
same,IC50,second compound 0.00949 µM,1590 nM
same,IC50,second compound 0.03 µM,1130 nM
same,IC50,second compound 0.0949 µM,< 31.6 nM
same,IC50,second compound 0.3 µM,< 31.6 nM
same,"viability, T/C",[1],122%
same,"viability, T/C",[2],113%
same,"viability, T/C",[3],95%
same,"viability, T/C",[4],105%
same,"viability, T/C",[5],0.4%
same,"viability, T/C",[6],0.24%
same,"viability, T/C",[7],109%
same,"viability, T/C",[8],108%
same,"viability, T/C",[9],116%
same,"viability, T/C",[10],110%
same,"viability, T/C",[11],0.37%
same,"viability, T/C",[12],0.22%
same,"viability, T/C",[13],80.7%
same,"viability, T/C",[14],92.2%
same,"viability, T/C",[15],72.6%
same,"viability, T/C",[16],88.4%
same,"viability, T/C",[17],0.29%
same,"viability, T/C",[18],0.22%
same,"viability, T/C",[19],50.2%
same,"viability, T/C",[20],55.3%
same,"viability, T/C",[21],56.5%
same,"viability, T/C",[22],62.5%
same,"viability, T/C",[23],0.28%
same,"viability, T/C",[24],0.2%
same,"viability, T/C",[25],41.6%
same,"viability, T/C",[26],39.9%
same,"viability, T/C",[27],51.1%
same,"viability, T/C",[28],49.3%
same,"viability, T/C",[29],0.28%
same,"viability, T/C",[30],0.23%
same,"viability, T/C",[31],30.5%
same,"viability, T/C",[32],38.5%
same,"viability, T/C",[33],45.7%
same,"viability, T/C",[34],47.9%
same,"viability, T/C",[35],0.33%
same,"viability, T/C",[36],0.27%
